Assay [1] deals with Serine/threonine-protein kinase PAK 4 (Homo sapiens) (UniProt O96013). Kind of assay: Inhibition of human PAK4 at 18.6 nM by HotSpot assay relative to control.
The target in assay [2] is Mitogen-activated protein kinase kinase kinase kinase 5 (Homo sapiens) (UniProt Q9Y4K4). Put plainly: Inhibition of human KHS at 18.6 nM by HotSpot assay relative to control.
Assay [3] addresses MAP kinase-activated protein kinase 2 (Homo sapiens) (UniProt P49137). Kind of assay: Inhibition of human MAPKAPK2 at 18.6 nM by HotSpot assay relative to control.
Assay [4] addresses Mitogen-activated protein kinase 1 (Homo sapiens) (UniProt P28482). Kind of assay: Inhibition of human ERK2 at 1.82 nM by HotSpot assay relative to control.
Assay [5] has as its target RAC-gamma serine/threonine-protein kinase (Homo sapiens) (UniProt Q9Y243). Put plainly: Inhibition of human AKT3 at 1.82 nM by HotSpot assay relative to control.
The target in assay [6] is Casein kinase I isoform gamma-1 (Homo sapiens) (UniProt Q9HCP0). Put plainly: Inhibition of human CK1g1 at 1.82 nM by HotSpot assay relative to control.
In assay [7] the target is Homeodomain-interacting protein kinase 3 (Homo sapiens) (UniProt Q9H422). Put plainly: Inhibition of human HIPK3 at 1.82 nM by HotSpot assay relative to control.
Assay [8] has as its target Casein kinase I isoform delta (Homo sapiens) (UniProt P48730). Kind of assay: Inhibition of human CK1d at 1.82 nM by HotSpot assay relative to control.
In assay [9] the target is T1, Aurora kinase C (Homo sapiens) (UniProt Q9UQB9).
T1 sequence (whole entry): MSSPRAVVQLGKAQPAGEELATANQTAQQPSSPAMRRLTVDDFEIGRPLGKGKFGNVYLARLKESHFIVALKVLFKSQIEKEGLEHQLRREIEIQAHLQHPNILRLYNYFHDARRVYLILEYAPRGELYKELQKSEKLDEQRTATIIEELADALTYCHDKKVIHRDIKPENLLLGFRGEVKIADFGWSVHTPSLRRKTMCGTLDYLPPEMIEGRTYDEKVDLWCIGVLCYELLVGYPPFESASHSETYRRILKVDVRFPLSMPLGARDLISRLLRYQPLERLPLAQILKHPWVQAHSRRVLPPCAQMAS
Put plainly: Inhibition of human Aurora C at 1.82 nM by HotSpot assay relative to control.

Assay [10] concerns the target T2, Tyrosine-protein kinase ZAP-70 (Homo sapiens) (UniProt P43403).
T2 sequence (whole entry): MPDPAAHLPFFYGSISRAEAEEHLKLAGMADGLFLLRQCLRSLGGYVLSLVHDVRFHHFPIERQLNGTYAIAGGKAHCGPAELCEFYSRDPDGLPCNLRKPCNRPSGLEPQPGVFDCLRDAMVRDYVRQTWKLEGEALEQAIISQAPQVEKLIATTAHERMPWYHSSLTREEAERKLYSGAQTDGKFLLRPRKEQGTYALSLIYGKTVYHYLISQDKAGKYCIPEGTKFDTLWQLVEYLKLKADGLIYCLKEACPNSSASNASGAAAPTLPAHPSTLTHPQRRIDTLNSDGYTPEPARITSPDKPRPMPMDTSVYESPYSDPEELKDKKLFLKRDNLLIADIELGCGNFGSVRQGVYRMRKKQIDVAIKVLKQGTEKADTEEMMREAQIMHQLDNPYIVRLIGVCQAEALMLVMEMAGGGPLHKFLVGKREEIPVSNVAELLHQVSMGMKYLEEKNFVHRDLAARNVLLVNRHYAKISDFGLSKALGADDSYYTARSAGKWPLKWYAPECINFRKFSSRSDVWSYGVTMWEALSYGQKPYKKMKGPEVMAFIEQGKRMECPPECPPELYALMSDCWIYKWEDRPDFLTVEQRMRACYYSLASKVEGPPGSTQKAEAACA
Kind of assay: Inhibition of human ZAP70 at 1.82 nM by HotSpot assay relative to control.

Assay [11] deals with T3, Mitogen-activated protein kinase kinase kinase 2 (Homo sapiens) (UniProt Q9Y2U5).
T3 sequence (whole entry): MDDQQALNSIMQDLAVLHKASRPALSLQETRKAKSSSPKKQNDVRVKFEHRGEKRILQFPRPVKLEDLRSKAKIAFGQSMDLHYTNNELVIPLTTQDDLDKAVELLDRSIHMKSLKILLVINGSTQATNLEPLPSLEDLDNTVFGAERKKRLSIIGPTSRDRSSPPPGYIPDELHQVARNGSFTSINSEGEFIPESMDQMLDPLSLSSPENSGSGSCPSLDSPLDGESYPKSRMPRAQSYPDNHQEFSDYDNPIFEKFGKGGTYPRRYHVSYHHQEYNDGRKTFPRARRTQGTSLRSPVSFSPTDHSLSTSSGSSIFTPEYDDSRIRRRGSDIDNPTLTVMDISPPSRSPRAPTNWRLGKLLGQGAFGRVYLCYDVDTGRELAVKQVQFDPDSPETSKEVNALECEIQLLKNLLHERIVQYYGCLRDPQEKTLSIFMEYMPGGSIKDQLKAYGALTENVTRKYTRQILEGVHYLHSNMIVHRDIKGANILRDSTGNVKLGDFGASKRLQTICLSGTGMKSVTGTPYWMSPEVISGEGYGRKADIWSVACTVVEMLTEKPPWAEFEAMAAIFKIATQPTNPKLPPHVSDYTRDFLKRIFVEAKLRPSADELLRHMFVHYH
Kind of assay: Inhibition of human MEKK2 at 1.82 nM by HotSpot assay relative to control.

Data on two compounds can be found in ChEMBL document CHEMBL5653615 (J Biol Chem, 2013).

Chain of Casein kinase I isoform gamma-1 (Homo sapiens) (Q9HCP0 whole entry, looked up, canonical isoform): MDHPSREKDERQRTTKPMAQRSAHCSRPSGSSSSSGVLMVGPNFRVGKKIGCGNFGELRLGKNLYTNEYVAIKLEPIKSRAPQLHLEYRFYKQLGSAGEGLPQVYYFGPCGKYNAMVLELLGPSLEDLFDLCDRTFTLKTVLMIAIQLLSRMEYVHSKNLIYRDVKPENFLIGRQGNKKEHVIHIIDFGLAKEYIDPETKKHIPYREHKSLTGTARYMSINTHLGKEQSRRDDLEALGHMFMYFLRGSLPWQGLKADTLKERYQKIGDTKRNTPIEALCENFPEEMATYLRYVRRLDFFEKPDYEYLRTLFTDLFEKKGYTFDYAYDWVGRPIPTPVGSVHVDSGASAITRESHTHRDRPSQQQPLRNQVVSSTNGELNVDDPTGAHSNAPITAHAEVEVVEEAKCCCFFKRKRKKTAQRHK
Chain of Mitogen-activated protein kinase kinase kinase kinase 5 (Homo sapiens) (Q9Y4K4 whole entry, looked up): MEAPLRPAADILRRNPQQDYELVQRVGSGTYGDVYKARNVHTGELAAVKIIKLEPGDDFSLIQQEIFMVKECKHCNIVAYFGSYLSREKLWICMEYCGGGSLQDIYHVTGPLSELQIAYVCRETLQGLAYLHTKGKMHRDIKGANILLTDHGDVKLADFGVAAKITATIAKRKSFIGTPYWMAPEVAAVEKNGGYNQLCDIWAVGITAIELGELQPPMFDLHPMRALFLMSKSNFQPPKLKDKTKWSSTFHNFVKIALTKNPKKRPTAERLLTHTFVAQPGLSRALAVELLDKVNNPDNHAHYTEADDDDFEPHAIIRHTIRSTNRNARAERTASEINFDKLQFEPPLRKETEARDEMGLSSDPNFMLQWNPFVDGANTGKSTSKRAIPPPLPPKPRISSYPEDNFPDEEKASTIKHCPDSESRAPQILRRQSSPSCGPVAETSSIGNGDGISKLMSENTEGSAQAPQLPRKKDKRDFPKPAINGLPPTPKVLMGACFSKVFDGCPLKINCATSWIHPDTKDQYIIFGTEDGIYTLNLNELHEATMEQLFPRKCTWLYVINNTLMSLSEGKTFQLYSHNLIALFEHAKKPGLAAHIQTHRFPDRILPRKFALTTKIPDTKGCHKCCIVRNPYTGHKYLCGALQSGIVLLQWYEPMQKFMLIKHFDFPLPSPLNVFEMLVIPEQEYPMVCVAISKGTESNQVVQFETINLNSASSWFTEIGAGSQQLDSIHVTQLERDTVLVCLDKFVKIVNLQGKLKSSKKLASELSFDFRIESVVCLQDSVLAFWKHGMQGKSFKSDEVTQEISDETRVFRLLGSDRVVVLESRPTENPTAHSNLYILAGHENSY
Chain of MAP kinase-activated protein kinase 2 (Homo sapiens) (P49137 whole entry, looked up): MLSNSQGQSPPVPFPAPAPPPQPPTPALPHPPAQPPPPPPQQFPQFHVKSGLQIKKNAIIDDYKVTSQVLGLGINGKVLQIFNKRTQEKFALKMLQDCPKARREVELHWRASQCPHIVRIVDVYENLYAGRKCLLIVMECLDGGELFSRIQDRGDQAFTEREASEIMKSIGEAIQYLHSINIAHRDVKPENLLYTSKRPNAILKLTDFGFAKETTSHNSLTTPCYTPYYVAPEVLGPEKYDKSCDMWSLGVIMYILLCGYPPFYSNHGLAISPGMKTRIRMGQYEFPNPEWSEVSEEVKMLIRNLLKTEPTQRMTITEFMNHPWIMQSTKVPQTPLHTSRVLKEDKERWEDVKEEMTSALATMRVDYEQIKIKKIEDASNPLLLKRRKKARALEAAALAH
Chain of Mitogen-activated protein kinase 1 (Homo sapiens) (P28482 whole entry): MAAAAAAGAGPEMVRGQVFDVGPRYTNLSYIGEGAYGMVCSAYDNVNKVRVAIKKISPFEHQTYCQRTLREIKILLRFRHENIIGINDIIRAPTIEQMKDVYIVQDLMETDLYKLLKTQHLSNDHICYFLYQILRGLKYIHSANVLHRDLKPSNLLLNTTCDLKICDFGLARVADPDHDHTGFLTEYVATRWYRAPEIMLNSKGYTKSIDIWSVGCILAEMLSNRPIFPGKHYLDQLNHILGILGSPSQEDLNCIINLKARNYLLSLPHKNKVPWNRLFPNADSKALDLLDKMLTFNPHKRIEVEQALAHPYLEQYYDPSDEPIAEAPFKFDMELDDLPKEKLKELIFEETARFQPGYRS
Chain of Homeodomain-interacting protein kinase 3 (Homo sapiens) (Q9H422 whole entry, looked up, canonical isoform): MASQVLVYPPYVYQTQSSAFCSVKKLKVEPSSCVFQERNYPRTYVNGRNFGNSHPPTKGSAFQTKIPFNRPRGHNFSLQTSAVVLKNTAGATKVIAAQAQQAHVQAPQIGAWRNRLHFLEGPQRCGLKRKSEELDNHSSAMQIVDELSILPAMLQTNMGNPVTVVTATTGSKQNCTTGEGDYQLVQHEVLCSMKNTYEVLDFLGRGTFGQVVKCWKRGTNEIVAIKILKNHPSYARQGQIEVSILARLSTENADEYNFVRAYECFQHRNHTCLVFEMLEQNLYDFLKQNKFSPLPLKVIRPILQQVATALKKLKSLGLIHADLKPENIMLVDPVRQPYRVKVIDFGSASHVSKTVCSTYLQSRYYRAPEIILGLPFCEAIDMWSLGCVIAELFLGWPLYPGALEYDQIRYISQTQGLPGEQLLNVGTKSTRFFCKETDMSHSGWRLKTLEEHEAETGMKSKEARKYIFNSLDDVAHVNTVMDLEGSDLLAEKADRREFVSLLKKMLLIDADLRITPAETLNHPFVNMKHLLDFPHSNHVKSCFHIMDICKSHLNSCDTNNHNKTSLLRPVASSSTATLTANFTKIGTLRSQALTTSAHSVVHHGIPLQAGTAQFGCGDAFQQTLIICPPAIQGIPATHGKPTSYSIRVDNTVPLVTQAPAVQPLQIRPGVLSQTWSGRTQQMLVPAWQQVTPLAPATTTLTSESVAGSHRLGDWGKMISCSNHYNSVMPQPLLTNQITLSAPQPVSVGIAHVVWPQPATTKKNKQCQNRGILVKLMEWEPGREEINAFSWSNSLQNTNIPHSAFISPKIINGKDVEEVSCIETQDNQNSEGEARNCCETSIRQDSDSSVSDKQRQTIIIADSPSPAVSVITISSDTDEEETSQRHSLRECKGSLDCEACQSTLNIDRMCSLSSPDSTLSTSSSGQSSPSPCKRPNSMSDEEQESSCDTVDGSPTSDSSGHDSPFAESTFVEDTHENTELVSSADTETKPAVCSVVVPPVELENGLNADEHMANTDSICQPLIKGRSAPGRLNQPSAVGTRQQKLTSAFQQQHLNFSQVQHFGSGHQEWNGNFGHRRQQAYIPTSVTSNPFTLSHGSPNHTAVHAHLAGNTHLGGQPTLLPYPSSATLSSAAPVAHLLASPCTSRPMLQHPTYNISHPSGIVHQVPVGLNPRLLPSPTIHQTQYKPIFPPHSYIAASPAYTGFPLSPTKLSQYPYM
Chain of RAC-gamma serine/threonine-protein kinase (Homo sapiens) (Q9Y243 whole entry, canonical isoform): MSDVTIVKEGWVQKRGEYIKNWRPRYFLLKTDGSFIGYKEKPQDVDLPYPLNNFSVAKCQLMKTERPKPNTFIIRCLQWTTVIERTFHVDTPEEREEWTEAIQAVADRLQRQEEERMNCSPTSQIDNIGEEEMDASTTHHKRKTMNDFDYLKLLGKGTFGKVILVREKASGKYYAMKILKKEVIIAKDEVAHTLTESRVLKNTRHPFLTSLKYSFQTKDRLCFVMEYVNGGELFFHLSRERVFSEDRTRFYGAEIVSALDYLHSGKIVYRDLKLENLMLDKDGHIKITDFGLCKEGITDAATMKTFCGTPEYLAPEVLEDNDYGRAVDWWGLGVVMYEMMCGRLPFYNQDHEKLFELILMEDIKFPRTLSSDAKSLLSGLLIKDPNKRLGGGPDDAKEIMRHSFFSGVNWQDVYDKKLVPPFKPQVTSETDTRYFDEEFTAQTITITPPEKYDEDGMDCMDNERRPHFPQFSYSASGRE
Chain of Casein kinase I isoform delta (Homo sapiens) (P48730 whole entry, looked up, canonical isoform): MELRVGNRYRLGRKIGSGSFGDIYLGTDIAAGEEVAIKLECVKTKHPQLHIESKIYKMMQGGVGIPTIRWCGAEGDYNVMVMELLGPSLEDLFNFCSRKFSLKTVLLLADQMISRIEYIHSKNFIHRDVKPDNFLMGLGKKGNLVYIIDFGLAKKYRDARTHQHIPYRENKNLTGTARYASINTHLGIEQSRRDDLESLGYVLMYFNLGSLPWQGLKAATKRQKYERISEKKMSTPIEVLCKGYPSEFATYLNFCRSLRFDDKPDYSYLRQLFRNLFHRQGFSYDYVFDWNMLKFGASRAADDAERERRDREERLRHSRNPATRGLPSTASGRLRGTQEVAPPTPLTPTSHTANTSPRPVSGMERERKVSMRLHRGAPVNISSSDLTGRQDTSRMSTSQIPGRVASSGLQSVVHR
Chain of Serine/threonine-protein kinase PAK 4 (Homo sapiens) (O96013 whole entry, looked up): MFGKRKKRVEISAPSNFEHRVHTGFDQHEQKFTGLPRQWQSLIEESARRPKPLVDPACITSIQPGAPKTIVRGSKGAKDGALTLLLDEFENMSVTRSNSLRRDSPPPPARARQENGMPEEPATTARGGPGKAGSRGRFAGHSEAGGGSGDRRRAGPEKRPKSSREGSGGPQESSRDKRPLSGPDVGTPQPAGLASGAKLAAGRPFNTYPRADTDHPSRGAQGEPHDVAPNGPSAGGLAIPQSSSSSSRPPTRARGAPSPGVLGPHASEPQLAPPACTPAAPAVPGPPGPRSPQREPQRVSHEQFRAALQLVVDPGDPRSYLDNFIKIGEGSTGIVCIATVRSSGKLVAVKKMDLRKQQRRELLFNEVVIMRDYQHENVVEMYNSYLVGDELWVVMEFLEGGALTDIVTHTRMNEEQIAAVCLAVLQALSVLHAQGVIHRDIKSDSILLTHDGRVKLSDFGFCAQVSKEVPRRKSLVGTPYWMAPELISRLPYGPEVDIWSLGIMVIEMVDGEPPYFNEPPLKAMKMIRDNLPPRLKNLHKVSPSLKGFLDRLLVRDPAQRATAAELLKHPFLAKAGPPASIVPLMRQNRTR

For `C[C@]1(O)C[C@@H](c2nc(-c3ccc4ccc(-c5ccccc5)nc4c3)c3c(N)nccn32)C1`, the inhibition in assay [1] was -5.78%; in assay [2], 12.1%; in assay [3] it was 5.71%.

Regarding `C[C@@]1(C(=O)Nc2ccc(F)nc2)CCCN1c1nc(Nc2cc(C3CC3)n[nH]2)c2cccn2n1`, the inhibition is -3.61% in assay [4]; 2.34% in [5]; -3.54% in [6]; -3.9% in assay [7]; 0.92% in [8]; 35.7% in assay [9]. The inhibition in assay [10] was -2.24%; in assay [11], -7.18%.
